In general, GI50 refers to the concentration at which growth is held to half of that of the control.

Test systems include DU-145; MOLT-4; HCT-15; COLO 205; TK-10; NCI-H226; CAKI-1; HL-60; SK-MEL-2; MDA-MB-435; UACC-257; 786-0; NCI/ADR-RES; SNB-75; OVCAR-4; SF-295; K562; M14; CCRF-CEM; SNB-19.
What all share (assay): DTP human tumour cell line panel, 48 h

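Step 1: Grow cells in 96-well plates. Step 2: Expose to compound for 48 hours at 5 concentrations. Step 3: Interpolate endpoints linearly; if unreached, use highest concentration. The concentration for 50% growth inhibition is given as GI50.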 The source made the active and inactive calls. Cut-off read from the data, not from the text of the source: active = GI50 up to about 1.1 µM and inactive = higher.

For `CN(C)CCn1c(=O)c2ccc3c4c(nn3CCN(C)C)c3ccccc3n(c1=O)c24`, the GI50 in the test with DU-145 is 0.208 µM (active); with MOLT-4, < 0.01 µM (active); with HCT-15, under 0.125 µM; in the test on COLO 205, 0.201 µM (active); in the test with TK-10 it was 0.578 µM (active); with NCI-H226, 0.506 µM (active). In addition, the GI50 is 0.0608 µM (active) in the test on CAKI-1; 0.598 µM (active) in the test on HL-60; 0.423 µM (active) in the test with SK-MEL-2; 0.23 µM (active) in the test with MDA-MB-435; 1.12 µM (inactive) in the test on UACC-257; < 0.121 µM (active) with 786-0. Further, the GI50 was 0.368 µM (active) in the test with NCI/ADR-RES; < 0.0146 µM (active) in the test on SNB-75; 0.141 µM (active) in the test with OVCAR-4; 0.0292 µM (active) in the test with SF-295; 0.146 µM (active) in the test with K562; 0.411 µM (active) in the test on M14. The GI50 in the test on CCRF-CEM was 0.178 µM (active); with SNB-19, 0.313 µM (active).

Take `Cc1cc2c(=Cc3ccc(N(C)C)cc3)c3ccccc3n2[n+]1C`: the GI50 in the test with DU-145 was 0.713 µM (active); in the test with MOLT-4 it was 0.282 µM (active); with HCT-15, 12.3 µM; with COLO 205, 0.164 µM (active); in the test with TK-10, 1.3 µM (inactive); with NCI-H226, 1.01 µM (active). The GI50 in the test on CAKI-1 was 3.3 µM (inactive); in the test on HL-60, 1.39 µM (inactive); in the test on SK-MEL-2, 0.652 µM (active); with MDA-MB-435, 0.424 µM (active); with UACC-257 it was 0.207 µM (active); in the test on 786-0 it was 0.607 µM (active). For the same compound, the GI50 with NCI/ADR-RES was > 66.4 µM (inactive); in the test on SNB-75, 0.409 µM (active); with OVCAR-4 it was 0.641 µM (active); with SF-295, 1.05 µM (active); in the test with K562, 0.227 µM (active); in the test with M14, 1.05 µM (active). Moreover, the GI50 in the test on CCRF-CEM was 0.944 µM (active); in the test on SNB-19 it was 0.415 µM (active).

Consider `O=C1OC2C(O)COC2(O)C1(O)C(C[N+](=O)[O-])c1ccc(Cl)cc1` (stereo not given), for which the GI50 was 18.2 µM (inactive) in the test on DU-145; 2.6 µM (inactive) in the test with MOLT-4; 6.84 µM in the test on HCT-15; 3.84 µM (inactive) in the test with COLO 205; 12.5 µM (inactive) in the test on TK-10; 11.6 µM (inactive) in the test with NCI-H226. The GI50 with CAKI-1 is 15.5 µM (inactive); with HL-60, 1.76 µM (inactive); with SK-MEL-2, 15.7 µM (inactive); in the test with MDA-MB-435, 1.97 µM (inactive); in the test with UACC-257 it was 6.68 µM (inactive); in the test with 786-0 it was 1.82 µM (inactive). Moreover, the GI50 was 21.9 µM (inactive) with NCI/ADR-RES; 9.35 µM (inactive) with SNB-75; 8.45 µM (inactive) in the test on OVCAR-4; 12.1 µM (inactive) in the test with SF-295; 2.96 µM (inactive) with K562; 2.58 µM (inactive) in the test on M14. For the same compound, the GI50 is 3.45 µM (inactive) in the test on CCRF-CEM and 15.2 µM (inactive) in the test with SNB-19.

As to `Cc1cc(/N=C/c2ccc(Cl)cc2)n(-c2ccccc2)n1`, the GI50 with DU-145 is 50.9 µM (inactive); in the test with MOLT-4 it was 32.2 µM (inactive); with HCT-15 it was 19 µM; in the test with COLO 205, 23.9 µM (inactive); with TK-10 it was 40.3 µM (inactive); in the test on NCI-H226, 43.6 µM (inactive). Also, the GI50 was 39 µM (inactive) in the test on CAKI-1; 26 µM (inactive) with HL-60; 53.5 µM (inactive) with SK-MEL-2; 31.1 µM (inactive) with MDA-MB-435; 63.5 µM (inactive) in the test with UACC-257; 37.3 µM (inactive) with 786-0. The GI50 in the test with NCI/ADR-RES is 40.9 µM (inactive); in the test on SNB-75 it was 32.4 µM (inactive); in the test with OVCAR-4, 33.4 µM (inactive); in the test with SF-295 it was 30.8 µM (inactive); in the test with K562, 12.9 µM (inactive); in the test with M14, 48.6 µM (inactive). Besides, the GI50 in the test with CCRF-CEM was 26.5 µM (inactive); with SNB-19, 61.1 µM (inactive).

On to `O=C1OC(C2Cc3ccc4c(c3C2=O)CCCC4)c2ccccc21` (stereo not given), for which the GI50 with DU-145 was 74.3 µM (inactive); in the test on MOLT-4 it was 16.8 µM (inactive); with HCT-15, 28.4 µM; in the test on COLO 205 it was 46.8 µM (inactive); with TK-10 it was 73.5 µM (inactive); in the test on NCI-H226, 20.6 µM (inactive). Besides, the GI50 is 69.3 µM (inactive) in the test on CAKI-1; 71.3 µM (inactive) with HL-60; 24.5 µM (inactive) in the test on SK-MEL-2; 38.8 µM (inactive) in the test on MDA-MB-435; 52.2 µM (inactive) in the test with UACC-257; 50.8 µM (inactive) with 786-0. The GI50 in the test with NCI/ADR-RES was 46 µM (inactive); in the test on SNB-75, 65.6 µM (inactive); in the test with OVCAR-4, 24.8 µM (inactive); with SF-295, 40.1 µM (inactive); with K562, 21.8 µM (inactive); in the test with M14, 50.4 µM (inactive). For the same compound, the GI50 in the test on CCRF-CEM is 15.3 µM (inactive); with SNB-19, 44.5 µM (inactive).

For `CCSCCCCC(c1ccc(O)cc1)C(C)(CC)c1ccc(O)cc1` (stereo not given), the GI50 was > 100 µM (inactive) in the test on DU-145; 32.1 µM (inactive) in the test with MOLT-4; 18.4 µM in the test on HCT-15; 20.4 µM (inactive) with COLO 205; 17.4 µM (inactive) in the test on TK-10; 17.9 µM (inactive) in the test on NCI-H226. Further, the GI50 was 35 µM (inactive) with CAKI-1; > 100 µM (inactive) in the test on HL-60; 16 µM (inactive) in the test on SK-MEL-2; 18.2 µM (inactive) in the test on MDA-MB-435; 22.2 µM (inactive) in the test on UACC-257; 24.4 µM (inactive) with 786-0. The GI50 in the test with NCI/ADR-RES is 20.3 µM (inactive); in the test with SNB-75, > 100 µM (inactive); in the test on OVCAR-4, 21.7 µM (inactive); with SF-295, 31.3 µM (inactive); with K562 it was 42.1 µM (inactive); in the test with M14, 31 µM (inactive). In addition, the GI50 is 18.6 µM (inactive) with CCRF-CEM and 24.5 µM (inactive) in the test on SNB-19.

Take `C=C1C(=O)O[C@@H]2C[C@@]3(C)CCC[C@H](C)C3=C[C@H]12` [HELENINE]: the GI50 was 12 µM (inactive) in the test on DU-145; 1.62 µM (inactive) with MOLT-4; 4.3 µM in the test on HCT-15; 1.73 µM (inactive) in the test on COLO 205; 2.77 µM (inactive) in the test on TK-10; 15.7 µM (inactive) with NCI-H226. Further, the GI50 was 5.33 µM (inactive) in the test on CAKI-1; 1.98 µM (inactive) with HL-60; 3.24 µM (inactive) in the test with SK-MEL-2; 5.08 µM (inactive) in the test on MDA-MB-435; 7.21 µM (inactive) in the test with UACC-257; 3.53 µM (inactive) in the test with 786-0. For the same compound, the GI50 in the test on NCI/ADR-RES is 7.74 µM (inactive); in the test with SNB-75 it was 3.46 µM (inactive); in the test with OVCAR-4, 4.49 µM (inactive); in the test on SF-295 it was 17.5 µM (inactive); in the test with K562, 3.02 µM (inactive); with M14, 3.08 µM (inactive). For the same compound, the GI50 was 1.52 µM (inactive) in the test with CCRF-CEM and 16.5 µM (inactive) in the test on SNB-19.

The record behind these values is ChEMBL document CHEMBL1201862, “PubChem BioAssay data set” (2004).
